Data taken from publication PMC3835519 (Aquatic toxicology (Amsterdam, Netherlands), 2012).
Like-named read-outs stand apart in the source and are kept apart here.

Experiments:
[1] = format: in vitro ADME, Cyprinus carpio; details: S9 of smaller (likely younger, juvenile) carp population; mean ± SD, N = 3
[2] = format: in vitro ADME, Mus musculus
[3] = test system: purified porcine esterases; details: ref Roberts et al., 2011a, b; cited from earlier work
[4] = format: in vitro ADME, Chelydra serpentina serpentina; details: snapping turtle S9; 120 min; 1 mg protein
[5] = format: in vitro ADME, Pimephales promelas; details: all three fathead minnow subcellular fractions; significant = three times the background

Question: Which results are given for CCCCC(CC)COC(=O)c1cc(Br)c(Br)c(Br)c1Br (stereo not drawn) [TBB, 2-ethylhexyl 2,3,4,5-tetrabromobenzoate]?
Answer: metabolic rate of TBB [1]: 1.30 ± 0.62 pmoles TBB mg^−1 min^−1; difference in TBB metabolism between age classes ([2]; S9, 4-month-old vs 2-month-old male mice): No difference; metabolism by esterases [3]: rapidly metabolize; metabolism of TBB (loss of parent vs heat-inactivated control) [4]: not metabolized

Question: Which “TBMB metabolite peaks in chromatograms of incubations” value ([2]; mouse incubations, significant = three times the background) does the source give for COC(=O)c1cc(Br)c(Br)c(Br)c1Br [TBMB, 2,3,4,5-tetrabromomethylbenzoate] here?
Answer: not significant

Question: What about the “TBMB metabolite peaks in chromatograms of incubations” value [5] of the same compound?
Answer: Significant peaks
